Reference: patent US20250186388A1, “ACTIVE SUBSTANCES FOR MEDICAL USE” (INFLAMED PHARMA GMBH, priority 2020, published 2025)
Where a name gives a salt, the structure may show the parent alone.

What was measured:
[1] = Solubility in octanol (content in the organic phase by UV/VIS spectroscopy, pH values); type: physicochemical; conditions: for pH value: solubility test in octanol
Method: Solubility tests were carried out in octanol and the content in the organic phase was investigated by UV/VIS spectroscopy and the pH values.

[2] = test system: rabbits incubated with E. coli; conditions: cited from earlier work
[3] = rabbits incubated with E. coli, lidocaine administration

| SMILES | Content (solubility in octanol, content in the organic phase) [1] | pH value [1] | incidence of pulmonary oedema ([2]; compared to a comparison group) | albumin content in the bronchoalveolar lavage ([2]; lidocaine group) | leucocytes in the bronchoalveolar lavage ([2]; lidocaine group) | haemorrhages, alveolar septal thickening and number of inflammatory cells in the alveolar space ([2]; rabbit, in vivo) | lung mechanics (compliance, resistance) [2, 3] | paO2 [2, 3] |
| --- | --- | --- | --- | --- | --- | --- | --- | --- |
| CCN(CC)CCOC(=O)c1ccc(N)cc1 [Procaine hydrochloride] | 8% | 4.5 |  |  |  |  |  |  |
| CCN(CC)CCOC(=O)c1ccc(N)cc1 [Procaine, 4-aminobenzoic acid-2-(N,N-diethylamino)ethyl ester] | completely dissolved (100%) | 8.5 |  |  |  |  |  |  |
| CCN(CC)CC(=O)Nc1c(C)cccc1C [lidocaine] |  |  | reduced incidence | lower | fewer | visibly reduced | improved | increase |
